From ChEMBL document CHEMBL5537115, “New broad-spectrum and potent antibacterial agents with dual-targeting mechanism: Promoting FtsZ polymerization and disrupting bacterial membranes” (Eur J Med Chem, 2024)
Calls of active or inactive are those of the source. No cut-off for these calls is given here.

Experiments:
Staphylococcus aureus [1] = assay: Effect on proton gradient of cytoplasmic membrane in Staphylococcus aureus ATCC25923 at 1 ug/ml measured after 20 mins by diSC35 dye based analysis; assay type: functional, organism-based; conditions: Cytoplasm membrane, dose 1.0 µg/ml
Staphylococcus aureus [2] = assay: Antibacterial activity against Staphylococcus aureus clinical isolate incubated for 18 to 24 hrs; assay type: functional; conditions: time 18-24 hrs
Acinetobacter baumannii [3] = assay: Antibacterial activity against Acinetobacter baumannii ATCC19606 assessed as bacterial growth inhibition incubated for 20 hrs by CLSI based broth microdilution method; assay type: functional
Escherichia coli [4] = assay: Antibacterial activity against penicillin-susceptible Escherichia coli ATCC25922 assessed as bacterial growth inhibition incubated for 20 hrs by CLSI based broth microdilution method; assay type: functional
Staphylococcus aureus [5] = assay: Antibacterial activity against penicillin-resistant Staphylococcus aureus ATCC31007 assessed as bacterial growth inhibition incubated for 20 hrs by CLSI based broth microdilution method; assay type: functional
Staphylococcus aureus [6] = assay: Antibacterial activity against erythromycin-susceptible Staphylococcus aureus ATCC25923 incubated for 18 to 24 hrs; assay type: functional; conditions: time 18-24 hrs
Staphylococcus aureus [7] = assay: Antibacterial activity against methicillin-resistant Staphylococcus aureus ATCC43300 incubated for 18 to 20 hrs; assay type: functional; conditions: time 18-20 hrs
Enterococcus faecium [8] = assay: Antibacterial activity against vancomycin-resistant Enterococcus faecium ATCC51559 assessed as bacterial growth inhibition incubated for 20 hrs by CLSI based broth microdilution method; assay type: functional
[9] = test system: Staphylococcus epidermidis; assay: Antibacterial activity against penicillin-resistant Staphylococcus epidermidis clinical isolate assessed as bacterial growth inhibition incubated for 20 hrs by CLSI based broth microdilution method; assay type: functional
Staphylococcus aureus [10] = assay: Antibacterial activity against Staphylococcus aureus clinical isolate assessed as bacterial growth inhibition incubated for 20 hrs by CLSI based broth microdilution method; assay type: functional
Streptococcus pyogenes [11] = assay: Antibacterial activity against erythromycin-susceptible Streptococcus pyogenes 1 assessed as bacterial growth inhibition incubated for 20 hrs by CLSI based broth microdilution method; assay type: functional
Klebsiella pneumoniae = assay: Antibacterial activity against Klebsiella pneumoniae ATCC BAA-1902 assessed as bacterial growth inhibition incubated for 20 hrs by CLSI based broth microdilution method; assay type: functional
Bacillus subtilis [12] = assay: Selectivity ratio of MBC for penicillin-susceptible Bacillus subtilis ATCC9372 to MIC for penicillin-susceptible Bacillus subtilis ATCC9372; assay type: functional
Enterococcus faecalis [13] = assay: Antibacterial activity against vancomycin-resistant Enterococcus faecalis ATCC51299 assessed as bacterial growth inhibition incubated for 20 hrs by CLSI based broth microdilution method; assay type: functional
Bacillus subtilis [14] = assay: Antibacterial activity against penicillin-susceptible Bacillus subtilis ATCC9372 assessed as bacterial growth inhibition incubated for 20 hrs by CLSI based broth microdilution method; assay type: functional
Enterococcus faecalis [15] = assay: Antibacterial activity against vancomycin-susceptible Enterococcus faecalis ATCC29212 assessed as bacterial growth inhibition incubated for 20 hrs by CLSI based broth microdilution method; assay type: functional
Streptococcus pyogenes [16] = assay: Antibacterial activity against erythromycin-resistant Streptococcus pyogenes 2 clinical isolate assessed as bacterial growth inhibition incubated for 20 hrs by CLSI based broth microdilution method; assay type: functional
Bacillus pumilus = assay: Antibacterial activity against penicillin-susceptible Bacillus pumilus CMCC63202 assessed as bacterial growth inhibition incubated for 20 hrs by CLSI based broth microdilution method; assay type: functional
Acinetobacter baumannii [17] = assay: Antibacterial activity against Acinetobacter baumannii ATCC19606 incubated for 18 to 24 hrs; assay type: functional; conditions: time 18-24 hrs
Bacillus subtilis [18] = assay: Antibacterial activity against penicillin-susceptible Bacillus subtilis ATCC9372 incubated for 18 to 24 hrs; assay type: functional; conditions: time 18-24 hrs
Acinetobacter baumannii [19] = assay: Selectivity ratio of MBC for Acinetobacter baumannii ATCC19606 to MIC for Acinetobacter baumannii ATCC19606; assay type: functional
Enterococcus faecium [20] = assay: Antibacterial activity against vancomycin-susceptible Enterococcus faecium ATCC19434 assessed as bacterial growth inhibition incubated for 20 hrs by CLSI based broth microdilution method; assay type: functional
Escherichia coli [21] = assay: Antibacterial activity against wild-type Escherichia coli BW25113 assessed as bacterial growth inhibition incubated for 20 hrs by CLSI based broth microdilution method; assay type: functional
Staphylococcus aureus [22] = assay: Antibacterial activity against erythromycin-susceptible Staphylococcus aureus ATCC25923 assessed as bacterial growth inhibition incubated for 20 hrs by CLSI based broth microdilution method; assay type: functional
Staphylococcus aureus [23] = assay: Antibacterial activity against methicillin-resistant Staphylococcus aureus ATCC43300 assessed as bacterial growth inhibition incubated for 20 hrs by CLSI based broth microdilution method; assay type: functional
Staphylococcus aureus [24] = assay: Selectivity ratio of MBC for Staphylococcus aureus clinical isolate to MIC for Staphylococcus aureus clinical isolate; assay type: functional
Staphylococcus aureus [25] = assay: Selectivity ratio of MBC for methicillin-resistant Staphylococcus aureus ATCC43300 to MIC for methicillin-resistant Staphylococcus aureus ATCC43300; assay type: functional
Staphylococcus aureus [26] = assay: Selectivity ratio of MBC for erythromycin-susceptible Staphylococcus aureus ATCC25923 to MIC for erythromycin-susceptible Staphylococcus aureus ATCC25923; assay type: functional
Staphylococcus aureus [27] = assay: Disruption of inner membrane in Staphylococcus aureus ATCC25923 at 0.5 ug/ml measured after 12 mins by PI staining based analysis; assay type: functional, organism-based; conditions: dose 0.5 µg/ml
Escherichia coli [28] = assay: Disruption of outer membrane in Escherichia coli ATCC25922 at 16 ug/ml measured after 10 mins by NPN dye based analysis; assay type: functional, organism-based; conditions: dose 16.0 µg/ml

Structure (SMILES) | Activity (Staphylococcus aureus [1]) | MIC (Acinetobacter baumannii [3]) | MIC (Escherichia coli [4]) | MIC (Staphylococcus aureus [5]) | MIC (Enterococcus faecium [8]) | MIC [9] | MIC (Staphylococcus aureus [10]) | MIC (Streptococcus pyogenes [11]) | MIC (Klebsiella pneumoniae) | MIC (Enterococcus faecalis [13]) | MIC (Bacillus subtilis [14]) | MIC (Enterococcus faecalis [15]) | MIC (Streptococcus pyogenes [16]) | MIC (Bacillus pumilus) | MIC (Enterococcus faecium [20]) | MIC (Escherichia coli [21]) | MIC (Staphylococcus aureus [22]) | MIC (Staphylococcus aureus [23]) | Activity (Staphylococcus aureus [27]) | Activity (Escherichia coli [28]) | also measured
Cc1cc(-c2ccccc2)[n+](C)cc1-c1ccccc1 | inactive | – | – | – | – | – | – | – | – | – | – | – | – | – | – | – | – | – | – | – | –
Cc1ccccc1-c1c[n+](C)c(-c2ccc(C(C)(C)C)cc2)cc1/C=C/c1ccc(N(C)C)cc1.[I-] | – | 1 µg/mL | 4 µg/mL | 1 µg/mL | 0.5 µg/mL | 1 µg/mL | 0.25 µg/mL | 2 µg/mL | 16 µg/mL | 2 µg/mL | 0.5 µg/mL | 2 µg/mL | 2 µg/mL | 0.5 µg/mL | 1 µg/mL | 2 µg/mL | 0.125 µg/mL | 0.5 µg/mL | – | – | MBC (Staphylococcus aureus [2]): 1 µg/mL; MBC (Staphylococcus aureus [6]): 0.25 µg/mL; MBC (Staphylococcus aureus [7]): 0.5 µg/mL; Ratio (Bacillus subtilis [12]): 4; MBC (Acinetobacter baumannii [17]): 2 µg/mL; MBC (Bacillus subtilis [18]): 2 µg/mL; Ratio (Acinetobacter baumannii [19]): 2; Ratio (Staphylococcus aureus [24]): 4; Ratio (Staphylococcus aureus [25]): 1; Ratio (Staphylococcus aureus [26]): 2
C[n+]1cc(-c2ccccc2)c(/C=C/c2ccccc2)cc1-c1ccc(C(C)(C)C)cc1 | inactive | – | – | – | – | – | – | – | – | – | – | – | – | – | – | – | – | – | Active | Active | –
C[n+]1cc(-c2ccccc2)c(/C=C/c2ccc(C(C)(C)C)cc2)cc1-c1ccccc1.[I-] | inactive | 4 µg/mL | 8 µg/mL | 4 µg/mL | 2 µg/mL | 2 µg/mL | 0.5 µg/mL | 2 µg/mL | 32 µg/mL | 4 µg/mL | 0.5 µg/mL | 4 µg/mL | 2 µg/mL | 2 µg/mL | 4 µg/mL | 8 µg/mL | 0.25 µg/mL | 0.5 µg/mL | Active | Active | –
